PubChem BioAssay (NCI)
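Compound exposure: 48 hours, 5 concentrations, 96-well plates. GI50 = concentration required for 50% inhibition of growth. At the TGI there is no net growth.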

Legend:
Experiment in all cases: growth of human tumour cells (NCI), 48 h
HL-60(TB) leukemia = system: HL-60(TB) leukemia
MOLT-4 leukemia = system: MOLT-4 leukemia
HCT-116 colon = system: HCT-116 colon
HOP-92 NSCLC = system: HOP-92 NSCLC
HOP-62 NSCLC = system: HOP-62 NSCLC
A549 NSCLC = system: A549 NSCLC
LOX IMVI melanoma = system: LOX IMVI melanoma
SR leukemia = system: SR leukemia
A498 renal = system: A498 renal
SK-OV-3 ovarian = system: SK-OV-3 ovarian
DU-145 prostate = system: DU-145 prostate
UACC-62 melanoma = system: UACC-62 melanoma
T-47D breast = system: T-47D breast
IGROV1 ovarian = system: IGROV1 ovarian
SK-MEL-28 melanoma = system: SK-MEL-28 melanoma
RXF 393 renal = system: RXF 393 renal
ACHN renal = system: ACHN renal
CCRF-CEM leukemia = system: CCRF-CEM leukemia
PC-3 prostate = system: PC-3 prostate
SN12C renal = system: SN12C renal
MALME-3M melanoma = system: MALME-3M melanoma
SF-539 CNS = system: SF-539 CNS
KM12 colon = system: KM12 colon
EKVX NSCLC = system: EKVX NSCLC
RPMI-8226 leukemia = system: RPMI-8226 leukemia
UO-31 renal = system: UO-31 renal
SF-295 CNS = system: SF-295 CNS
SNB-19 CNS = system: SNB-19 CNS
MCF7 breast = system: MCF7 breast
M14 melanoma = system: M14 melanoma
786-0 renal = system: 786-0 renal
OVCAR-8 ovarian = system: OVCAR-8 ovarian
NCI/ADR-RES ovarian = system: NCI/ADR-RES ovarian
OVCAR-4 ovarian = system: OVCAR-4 ovarian
OVCAR-5 ovarian = system: OVCAR-5 ovarian
U251 CNS = system: U251 CNS
NCI-H460 lung = system: NCI-H460 lung
NCI-H226 lung = system: NCI-H226 lung
HS 578T breast = system: HS 578T breast
NCI-H23 lung = system: NCI-H23 lung
HCC-2998 colon = system: HCC-2998 colon
SW-620 colon = system: SW-620 colon
CAKI-1 renal = system: CAKI-1 renal
SF-268 CNS = system: SF-268 CNS
K-562 leukemia = system: K-562 leukemia
SNB-75 CNS = system: SNB-75 CNS
SK-MEL-5 melanoma = system: SK-MEL-5 melanoma
MDA-MB-231 breast = system: MDA-MB-231 breast
COLO 205 colon = system: COLO 205 colon
MDA-MB-435 = system: MDA-MB-435
UACC-257 melanoma = system: UACC-257 melanoma
HCT-15 colon = system: HCT-15 colon
OVCAR-3 ovarian = system: OVCAR-3 ovarian
NCI-H522 lung = system: NCI-H522 lung
BT-549 breast = system: BT-549 breast
SK-MEL-2 melanoma = system: SK-MEL-2 melanoma
HT29 colon = system: HT29 colon
TK-10 renal = system: TK-10 renal

CCCCOC(=O)/C=C\C(=O)NC(N)=O
GI50 (HL-60(TB) leukemia): 22.8 µM
TGI (HL-60(TB) leukemia): 49.9 µM
GI50 (MOLT-4 leukemia): 38.3 µM
TGI (MOLT-4 leukemia): > 100 µM
GI50 (HCT-116 colon): 13.4 µM
TGI (HCT-116 colon): 27.8 µM
GI50 (HOP-92 NSCLC): 10.9 µM
TGI (HOP-92 NSCLC): 24.4 µM
GI50 (HOP-62 NSCLC): 32.5 µM
TGI (HOP-62 NSCLC): > 100 µM
GI50 (A549 NSCLC): 34.3 µM
TGI (A549 NSCLC): > 100 µM
GI50 (LOX IMVI melanoma): 17.4 µM
TGI (LOX IMVI melanoma): 32.4 µM
GI50 (SR leukemia): 35.7 µM
TGI (SR leukemia): > 100 µM
GI50 (A498 renal): 29.3 µM
TGI (A498 renal): 78.1 µM
GI50 (SK-OV-3 ovarian): 44.9 µM
TGI (SK-OV-3 ovarian): > 100 µM
GI50 (DU-145 prostate): 10.1 µM
TGI (DU-145 prostate): > 100 µM
GI50 (UACC-62 melanoma): 15.3 µM
TGI (UACC-62 melanoma): 30.1 µM
GI50 (T-47D breast): 14.5 µM
TGI (T-47D breast): 95.5 µM
GI50 (IGROV1 ovarian): 20.4 µM
TGI (IGROV1 ovarian): 54.3 µM
GI50 (SK-MEL-28 melanoma): 19.1 µM
TGI (SK-MEL-28 melanoma): 42.5 µM
GI50 (RXF 393 renal): 12.7 µM
TGI (RXF 393 renal): 27.1 µM
GI50 (ACHN renal): 15.3 µM
TGI (ACHN renal): 30.3 µM
GI50 (CCRF-CEM leukemia): 15.9 µM
TGI (CCRF-CEM leukemia): 35.8 µM
GI50 (PC-3 prostate): 25 µM
TGI (PC-3 prostate): 69.7 µM
GI50 (SN12C renal): 41.5 µM
TGI (SN12C renal): > 100 µM
GI50 (MALME-3M melanoma): 14.7 µM
TGI (MALME-3M melanoma): 34.5 µM
GI50 (SF-539 CNS): 24.6 µM
TGI (SF-539 CNS): 70 µM
GI50 (KM12 colon): 25 µM
TGI (KM12 colon): 66.9 µM
GI50 (EKVX NSCLC): 23.1 µM
TGI (EKVX NSCLC): 56.9 µM
GI50 (RPMI-8226 leukemia): 7.88 µM
TGI (RPMI-8226 leukemia): 28.9 µM
GI50 (UO-31 renal): 13.4 µM
TGI (UO-31 renal): 31 µM
GI50 (SF-295 CNS): 47.2 µM
TGI (SF-295 CNS): > 100 µM
GI50 (SNB-19 CNS): 41.2 µM
TGI (SNB-19 CNS): > 100 µM
GI50 (MCF7 breast): 13 µM
TGI (MCF7 breast): 76.7 µM
GI50 (M14 melanoma): 17.2 µM
TGI (M14 melanoma): 36.6 µM
GI50 (786-0 renal): 20.1 µM
TGI (786-0 renal): 53.1 µM
GI50 (OVCAR-8 ovarian): 29.7 µM
TGI (OVCAR-8 ovarian): > 100 µM
GI50 (NCI/ADR-RES ovarian): 27 µM
TGI (NCI/ADR-RES ovarian): 74.3 µM
GI50 (OVCAR-4 ovarian): 17.1 µM
TGI (OVCAR-4 ovarian): 43.8 µM
GI50 (OVCAR-5 ovarian): 25.6 µM
TGI (OVCAR-5 ovarian): 81.7 µM
GI50 (U251 CNS): 26.2 µM
TGI (U251 CNS): 89.3 µM
GI50 (NCI-H460 lung): 31.9 µM
TGI (NCI-H460 lung): > 100 µM
GI50 (NCI-H226 lung): 20 µM
TGI (NCI-H226 lung): 49.2 µM
GI50 (HS 578T breast): 23.5 µM
TGI (HS 578T breast): > 100 µM
GI50 (NCI-H23 lung): 25.1 µM
TGI (NCI-H23 lung): 72.5 µM
GI50 (HCC-2998 colon): 19.8 µM
TGI (HCC-2998 colon): 35.4 µM
GI50 (SW-620 colon): 14.5 µM
TGI (SW-620 colon): 32.3 µM
GI50 (CAKI-1 renal): 2.53 µM
TGI (CAKI-1 renal): 9.23 µM
GI50 (SF-268 CNS): 22.1 µM
TGI (SF-268 CNS): 61 µM
GI50 (K-562 leukemia): 31.3 µM
TGI (K-562 leukemia): > 100 µM
GI50 (SNB-75 CNS): 18 µM
TGI (SNB-75 CNS): 74.9 µM
GI50 (SK-MEL-5 melanoma): 24.3 µM
TGI (SK-MEL-5 melanoma): 71.4 µM
GI50 (MDA-MB-231 breast): 17.9 µM
TGI (MDA-MB-231 breast): 42.6 µM
GI50 (COLO 205 colon): 14 µM
TGI (COLO 205 colon): 29.1 µM
GI50 (MDA-MB-435): 24.7 µM
TGI (MDA-MB-435): 85 µM
GI50 (UACC-257 melanoma): 21 µM
TGI (UACC-257 melanoma): 56.7 µM
GI50 (HCT-15 colon): 15.6 µM
TGI (HCT-15 colon): 38.3 µM
GI50 (OVCAR-3 ovarian): 13 µM
TGI (OVCAR-3 ovarian): 26.2 µM

Clc1ccc(OCc2nnc3sc(SSc4nn5c(COc6ccc(Cl)cc6)nnc5s4)nn23)cc1
TGI (HL-60(TB) leukemia): > 100 µM
TGI (HCT-116 colon): > 100 µM
GI50 (HOP-92 NSCLC): 18.2 µM
TGI (HOP-92 NSCLC): > 100 µM
TGI (HOP-62 NSCLC): > 100 µM
TGI (A549 NSCLC): > 100 µM
TGI (LOX IMVI melanoma): > 100 µM
GI50 (SR leukemia): 14.2 µM
TGI (SR leukemia): > 100 µM
GI50 (A498 renal): 28.9 µM
TGI (A498 renal): 86 µM
TGI (SK-OV-3 ovarian): > 100 µM
TGI (DU-145 prostate): > 100 µM
GI50 (UACC-62 melanoma): 44.7 µM
TGI (UACC-62 melanoma): > 100 µM
TGI (T-47D breast): > 100 µM
TGI (IGROV1 ovarian): > 100 µM
TGI (SK-MEL-28 melanoma): > 100 µM
TGI (ACHN renal): > 100 µM
GI50 (CCRF-CEM leukemia): 76.7 µM
TGI (CCRF-CEM leukemia): > 100 µM
TGI (SN12C renal): > 100 µM
TGI (MALME-3M melanoma): > 100 µM
TGI (SF-539 CNS): > 100 µM
TGI (KM12 colon): > 100 µM
TGI (EKVX NSCLC): > 100 µM
TGI (RPMI-8226 leukemia): > 100 µM
TGI (UO-31 renal): > 100 µM
TGI (SF-295 CNS): > 100 µM
TGI (SNB-19 CNS): > 100 µM
GI50 (MCF7 breast): 45 µM
TGI (MCF7 breast): > 100 µM
TGI (NCI-H522 lung): > 100 µM
TGI (M14 melanoma): > 100 µM
TGI (786-0 renal): > 100 µM
TGI (OVCAR-8 ovarian): > 100 µM
TGI (NCI/ADR-RES ovarian): > 100 µM
GI50 (OVCAR-4 ovarian): 46.7 µM
TGI (OVCAR-4 ovarian): > 100 µM
TGI (OVCAR-5 ovarian): > 100 µM
TGI (U251 CNS): > 100 µM
TGI (NCI-H460 lung): > 100 µM
TGI (NCI-H226 lung): > 100 µM
TGI (HS 578T breast): > 100 µM
TGI (NCI-H23 lung): > 100 µM
GI50 (HCC-2998 colon): 16.1 µM
TGI (HCC-2998 colon): > 100 µM
TGI (SW-620 colon): > 100 µM
GI50 (CAKI-1 renal): 77.3 µM
TGI (CAKI-1 renal): > 100 µM
GI50 (BT-549 breast): 48.1 µM
TGI (BT-549 breast): > 100 µM
TGI (SF-268 CNS): > 100 µM
TGI (SK-MEL-2 melanoma): > 100 µM
TGI (K-562 leukemia): > 100 µM
TGI (SNB-75 CNS): > 100 µM
TGI (SK-MEL-5 melanoma): > 100 µM
TGI (MDA-MB-231 breast): > 100 µM
TGI (COLO 205 colon): > 100 µM
TGI (MDA-MB-435): > 100 µM
TGI (UACC-257 melanoma): > 100 µM
GI50 (HCT-15 colon): 86.2 µM
TGI (HCT-15 colon): > 100 µM
TGI (HT29 colon): > 100 µM
GI50 (OVCAR-3 ovarian): 35.3 µM
TGI (OVCAR-3 ovarian): 80.4 µM
GI50 (TK-10 renal): 73.2 µM
TGI (TK-10 renal): > 100 µM
